# Counter-ions that a name gives are not always drawn.
# Tests used:
# Assay in all cases: cells
# COLO-829 = format: functional, cell-based, Homo sapiens; settings: Homo sapiens, COLO-829
# Description: SANGER: Inhibition of human COLO-829 cell growth in a cell viability assay.
# COR-L88 = format: functional, cell-based, Homo sapiens; settings: Homo sapiens, COR-L88;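 further: growth inhibition of COR-L88 cells, read out with a cell viability assay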
# Description: SANGER: Inhibition of human COR-L88 cell growth in a cell viability assay.
# DB = format: functional, cell-based, Homo sapiens; settings: Homo sapiens, DB
# Description: SANGER: Inhibition of human DB cell growth in a cell viability assay.
# DOHH-2 = format: functional, cell-based, Homo sapiens; settings: Homo sapiens, DOHH-2;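 further: growth inhibition of human DOHH-2 cells, read out with a cell viability assay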
# Description: SANGER: Inhibition of human DOHH-2 cell growth in a cell viability assay.
# EM-2 = format: functional, cell-based, Homo sapiens; settings: Homo sapiens, EM-2;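 further: growth inhibition of EM-2 cells, read out with a cell viability assay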
# Description: SANGER: Inhibition of human EM-2 cell growth in a cell viability assay.
# ES1 = format: functional, cell-based, Homo sapiens; settings: Homo sapiens, ES1;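 further: growth inhibition of ES1 cells, read out with a cell viability assay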
# Description: SANGER: Inhibition of human ES1 cell growth in a cell viability assay.
# EW-24 = format: functional, cell-based, Homo sapiens; settings: Homo sapiens, EW-24;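 further: human EW-24 cancer cell line, growth inhibition read out via a cell viability assay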
# Description: SANGER: Inhibition of human EW-24 cell growth in a cell viability assay.
# GI-ME-N = format: functional, cell-based, Homo sapiens; settings: Homo sapiens, GI-ME-N;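 further: growth inhibition of human GI-ME-N cells, read out with a cell viability assay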
# Description: SANGER: Inhibition of human GI-ME-N cell growth in a cell viability assay.
# HH = format: functional, cell-based, Homo sapiens; settings: Homo sapiens, HH
# Description: SANGER: Inhibition of human HH cell growth in a cell viability assay.
# HuTu80 = format: functional, cell-based, Homo sapiens, HUTU-80; settings: Homo sapiens, HuTu80;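 further: growth inhibition of HuTu80 human cells, determined with a cell viability readout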
# Description: SANGER: Inhibition of human HUTU-80 cell growth in a cell viability assay.
# J-RT3-T3-5 = format: functional, cell-based, Homo sapiens; settings: Homo sapiens, J-RT3-T3-5;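 further: cell viability assay measuring growth inhibition of human J-RT3-T3-5 cells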
# Description: SANGER: Inhibition of human J-RT3-T3-5 cell growth in a cell viability assay.
# JVM-2 = format: functional, cell-based, Homo sapiens; settings: Homo sapiens, JVM-2;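 further: growth inhibition of JVM-2 cells determined by a cell viability assay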
# Description: SANGER: Inhibition of human JVM-2 cell growth in a cell viability assay.
# K562 = format: functional, cell-based, Homo sapiens; settings: Homo sapiens, K562
# Description: SANGER: Inhibition of human K-562 cell growth in a cell viability assay.
# K5 = format: functional, cell-based, Homo sapiens; settings: Homo sapiens, K5
# Description: SANGER: Inhibition of human K5 cell growth in a cell viability assay.
# KALS-1 = format: functional, cell-based, Homo sapiens; settings: Homo sapiens, KALS-1;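 further: growth inhibition of KALS-1 cells, determined with a cell viability assay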
# Description: SANGER: Inhibition of human KALS-1 cell growth in a cell viability assay.
# KE-37 = format: functional, cell-based, Homo sapiens; settings: Homo sapiens, KE-37;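 further: growth inhibition of KE-37 cells, read out with a cell viability assay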
# Description: SANGER: Inhibition of human KE-37 cell growth in a cell viability assay.
# KNS-42 = format: functional, cell-based, Homo sapiens; settings: Homo sapiens, KNS-42;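 further: growth inhibition of KNS-42 cells, read out with a cell viability assay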
# Description: SANGER: Inhibition of human KNS-42 cell growth in a cell viability assay.
# KURAMOCHI = format: functional, cell-based, Homo sapiens; settings: Homo sapiens, KURAMOCHI;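 further: growth inhibition of KURAMOCHI cells, read out with a cell viability assay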
# Description: SANGER: Inhibition of human KURAMOCHI cell growth in a cell viability assay.
# LS-123 = format: functional, cell-based, Homo sapiens; settings: Homo sapiens, LS-123
# Description: SANGER: Inhibition of human LS-123 cell growth in a cell viability assay.
# ML-2 = format: functional, cell-based, Homo sapiens; settings: Homo sapiens, ML-2;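 further: growth inhibition of ML-2 cells, measured with a cell viability readout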
# Description: SANGER: Inhibition of human ML-2 cell growth in a cell viability assay.
# MV4-11 = format: functional, cell-based, Homo sapiens, MV-4-11; settings: Homo sapiens, MV4-11;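 further: cell viability readout measuring growth inhibition of human MV-4-11 cells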
# Description: SANGER: Inhibition of human MV-4-11 cell growth in a cell viability assay.
# NB5 = format: functional, cell-based, Homo sapiens; settings: Homo sapiens, NB5;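 further: growth inhibition of NB5 cells, read out as cell viability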
# Description: SANGER: Inhibition of human NB5 cell growth in a cell viability assay.
# NCI-H1355 = format: functional, cell-based, Homo sapiens; settings: Homo sapiens, NCI-H1355;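 further: growth inhibition of human NCI-H1355 cells, read out by a cell viability assay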
# Description: SANGER: Inhibition of human NCI-H1355 cell growth in a cell viability assay.
# NCI-H1395 = format: functional, cell-based, Homo sapiens; settings: Homo sapiens, NCI-H1395;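 further: cell viability assay read-out quantifying reduced proliferation of human NCI-H1395 cells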
# Description: SANGER: Inhibition of human NCI-H1395 cell growth in a cell viability assay.
# NCI-H23 = format: functional, cell-based, Homo sapiens; settings: Homo sapiens, NCI-H23;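 further: cell viability assay measuring growth inhibition of NCI-H23 cells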
# Description: SANGER: Inhibition of human NCI-H23 cell growth in a cell viability assay.
# NCI-N87 = format: functional, cell-based, Homo sapiens; settings: Homo sapiens, NCI-N87;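 further: growth inhibition of human NCI-N87 cells, read out with a cell viability assay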
# Description: SANGER: Inhibition of human NCI-N87 cell growth in a cell viability assay.
# NOMO-1 = format: functional, cell-based, Homo sapiens; settings: Homo sapiens, NOMO-1;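 further: growth inhibition of human NOMO-1 cells measured by a cell viability assay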
# Description: SANGER: Inhibition of human NOMO-1 cell growth in a cell viability assay.
# NTERA-2-cl-D1 = format: functional, cell-based, Homo sapiens; settings: Homo sapiens, NTERA-2-cl-D1;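 further: inhibition of cell growth, measured with a cell viability assay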
# Description: SANGER: Inhibition of human NTERA-S-cl-D1 cell growth in a cell viability assay.
# OCUB-M = format: functional, cell-based, Homo sapiens; settings: Homo sapiens, OCUB-M;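 further: growth inhibition of the cancer cell line, read out through a cell viability assay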
# Description: SANGER: Inhibition of human OCUB-M cell growth in a cell viability assay.
# ONS-76 = format: functional, cell-based, Homo sapiens; settings: Homo sapiens, ONS-76;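 further: growth inhibition of human ONS-76 cells, read out with a cell viability assay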
# Description: SANGER: Inhibition of human ONS-76 cell growth in a cell viability assay.
# RH-1 = format: functional, cell-based, Homo sapiens; settings: Homo sapiens, RH-1;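 further: growth inhibition of human RH-1 cells, read out with a cell viability assay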
# Description: SANGER: Inhibition of human RH-1 cell growth in a cell viability assay.
# RPMI-8226 = format: functional, cell-based, Homo sapiens; settings: Homo sapiens, RPMI-8226
# Description: SANGER: Inhibition of human RPMI-8226 cell growth in a cell viability assay.
# RPMI-8866 = format: functional, cell-based, Homo sapiens; settings: Homo sapiens, RPMI-8866
# Description: SANGER: Inhibition of human RPMI-8866 cell growth in a cell viability assay.
# SK-MEL-1 = format: functional, cell-based, Homo sapiens; settings: Homo sapiens, SK-MEL-1;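 further: growth inhibition of human SK-MEL-1 cells, read out by a cell viability assay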
# Description: SANGER: Inhibition of human SK-MEL-1 cell growth in a cell viability assay.
# SK-UT-1 = format: functional, cell-based, Homo sapiens; settings: Homo sapiens, SK-UT-1;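 further: growth inhibition of SK-UT-1 cells, measured by a cell viability assay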
# Description: SANGER: Inhibition of human SK-UT-1 cell growth in a cell viability assay.
# SW684 = format: functional, cell-based, Homo sapiens; settings: Homo sapiens, SW684;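 further: growth inhibition of human SW684 cells, measured by a cell viability assay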
# Description: SANGER: Inhibition of human SW684 cell growth in a cell viability assay.
# SW 954 = format: functional, cell-based, Homo sapiens; settings: Homo sapiens, SW 954;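 further: growth inhibition of SW954 human cancer cells, read out as cell viability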
# Description: SANGER: Inhibition of human SW954 cell growth in a cell viability assay.
# A101D = format: functional, cell-based, Homo sapiens; settings: Homo sapiens, A101D;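 further: growth inhibition of the cell line, measured with a viability assay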
# Description: SANGER: Inhibition of human A101D cell growth in a cell viability assay.
# AM-38 = format: functional, cell-based, Homo sapiens; settings: Homo sapiens, AM-38;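 further: growth inhibition of AM-38 cells of human origin, read out by a cell viability assay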
# Description: SANGER: Inhibition of human AM-38 cell growth in a cell viability assay.
# BB49-HNC = format: functional, cell-based, Homo sapiens; settings: Homo sapiens, BB49-HNC;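 further: cell viability assay read-out, reported as inhibition of BB49-HNC cell growth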
# Description: SANGER: Inhibition of human BB49-HNC cell growth in a cell viability assay.
# C2BBe1 = format: functional, cell-based, Homo sapiens; settings: Homo sapiens, C2BBe1;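 further: growth inhibition of C2BBe1 cells, read out through a viability assay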
# Description: SANGER: Inhibition of human C2BBe1 cell growth in a cell viability assay.
# TE-10 = format: functional, cell-based, Homo sapiens; settings: Homo sapiens, TE-10;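 further: growth inhibition of TE-10 cells, measured by a cell viability assay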
# Description: SANGER: Inhibition of human TE-10 cell growth in a cell viability assay.
# TE-12 = format: functional, cell-based, Homo sapiens; settings: Homo sapiens, TE-12;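 further: growth inhibition of TE-12 cells, read out by a cell viability assay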
# Description: SANGER: Inhibition of human TE-12 cell growth in a cell viability assay.
# TE-9 = format: functional, cell-based, Homo sapiens; settings: Homo sapiens, TE-9;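 further: cell growth inhibition, measured with a cell viability readout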
# Description: SANGER: Inhibition of human TE-9 cell growth in a cell viability assay.
# CGTH-W-1 = format: functional, cell-based, Homo sapiens; settings: Homo sapiens, CGTH-W-1;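 further: growth inhibition of human CGTH-W-1 cells measured by cell viability assay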
# Description: SANGER: Inhibition of human CGTH-W-1 cell growth in a cell viability assay.
# COLO-668 = format: functional, cell-based, Homo sapiens; settings: Homo sapiens, COLO-668
# Description: SANGER: Inhibition of human COLO-668 cell growth in a cell viability assay.
# COLO-684 = format: functional, cell-based, Homo sapiens; settings: Homo sapiens, COLO-684
# Description: SANGER: Inhibition of human COLO-684 cell growth in a cell viability assay.
smiles,measurement,setting,value
COC1=CC(c2cc3ccccc3[nH]2)=N/C1=C\c1[nH]c(C)cc1C [OBATOCLAX MESYLATE],IC50,COLO-829,0.72 µM
same,IC50,COR-L88,> 16 µM
same,IC50,DB,0.234 µM
same,IC50,DOHH-2,< 0.0625 µM
same,IC50,EM-2,3.64 µM
same,IC50,ES1,0.0489 µM
same,IC50,EW-24,0.34 µM
same,IC50,GI-ME-N,5.01 µM
same,IC50,HH,0.707 µM
same,IC50,HuTu80,0.104 µM
same,IC50,J-RT3-T3-5,0.118 µM
same,IC50,JVM-2,3.94 µM
same,IC50,K562,1.67 µM
same,IC50,K5,0.532 µM
same,IC50,KALS-1,0.6 µM
same,IC50,KE-37,< 0.0625 µM
same,IC50,KNS-42,0.4 µM
same,IC50,KURAMOCHI,0.0851 µM
same,IC50,LS-123,0.0872 µM
same,IC50,ML-2,0.229 µM
same,IC50,MV4-11,0.18 µM
same,IC50,NB5,1.41 µM
same,IC50,NCI-H1355,0.153 µM
same,IC50,NCI-H1395,> 16 µM
same,IC50,NCI-H23,10.6 µM
same,IC50,NCI-N87,4.39 µM
same,IC50,NOMO-1,0.564 µM
same,IC50,NTERA-2-cl-D1,0.104 µM
same,IC50,OCUB-M,0.225 µM
same,IC50,ONS-76,0.0204 µM
same,IC50,RH-1,0.222 µM
same,IC50,RPMI-8226,0.316 µM
same,IC50,RPMI-8866,0.133 µM
same,IC50,SK-MEL-1,> 16 µM
same,IC50,SK-UT-1,0.136 µM
same,IC50,SW684,> 16 µM
same,IC50,SW 954,0.403 µM
same,IC50,A101D,0.0305 µM
same,IC50,AM-38,0.192 µM
same,IC50,BB49-HNC,1.34 µM
same,IC50,C2BBe1,2.42 µM
same,IC50,TE-10,0.0958 µM
same,IC50,TE-12,0.333 µM
same,IC50,TE-9,0.233 µM
same,IC50,CGTH-W-1,0.399 µM
same,IC50,COLO-668,1.33 µM
same,IC50,COLO-684,0.656 µM
Cc1cc([N+](=O)[O-])ccc1NS(=O)(=O)c1cc(Cl)ccc1Cl,IC50,COLO-829,0.825 µM
same,IC50,COR-L88,> 32 µM
same,IC50,DB,8.17 µM
same,IC50,DOHH-2,17.2 µM
same,IC50,EM-2,16.3 µM
same,IC50,ES1,11.4 µM
same,IC50,EW-24,> 32 µM
same,IC50,GI-ME-N,11.5 µM
same,IC50,HH,15.2 µM
same,IC50,HuTu80,1.15 µM
same,IC50,J-RT3-T3-5,5.35 µM
same,IC50,JVM-2,> 32 µM
same,IC50,K562,26.9 µM
same,IC50,K5,6.43 µM
same,IC50,KALS-1,8.54 µM
same,IC50,KE-37,> 32 µM
same,IC50,KNS-42,12.7 µM
same,IC50,KURAMOCHI,1.33 µM
same,IC50,LS-123,9.22 µM
same,IC50,ML-2,7.87 µM
same,IC50,MV4-11,5.23 µM
same,IC50,NB5,14.5 µM
same,IC50,NCI-H1355,2.93 µM
same,IC50,NCI-H1395,> 32 µM
same,IC50,NCI-H23,> 32 µM
same,IC50,NCI-N87,7.25 µM
same,IC50,NOMO-1,6.21 µM
same,IC50,NTERA-2-cl-D1,1.43 µM
same,IC50,OCUB-M,0.81 µM
same,IC50,ONS-76,6.44 µM
same,IC50,RH-1,10.2 µM
same,IC50,RPMI-8226,6.56 µM
same,IC50,RPMI-8866,3.32 µM
same,IC50,SK-MEL-1,> 32 µM
same,IC50,SK-UT-1,1.96 µM
same,IC50,SW684,> 32 µM
same,IC50,SW 954,7.26 µM
same,IC50,A101D,4.55 µM
same,IC50,AM-38,18.8 µM
same,IC50,BB49-HNC,> 32 µM
same,IC50,C2BBe1,25.4 µM
same,IC50,TE-10,4 µM
same,IC50,TE-12,2.94 µM
same,IC50,TE-9,2.69 µM
same,IC50,CGTH-W-1,11.9 µM
same,IC50,COLO-668,4.48 µM
same,IC50,COLO-684,12.1 µM
C=C(c1ccc(C(=O)O)cc1)c1cc2c(cc1C)C(C)(C)CCC2(C)C [BEXAROTENE],IC50,COLO-829,> 8 µM
same,IC50,COR-L88,> 8 µM
same,IC50,DB,> 8 µM
same,IC50,DOHH-2,> 8 µM
same,IC50,EM-2,> 8 µM
same,IC50,ES1,> 8 µM
same,IC50,EW-24,> 8 µM
same,IC50,GI-ME-N,> 8 µM
same,IC50,HH,> 8 µM
same,IC50,HuTu80,> 8 µM
same,IC50,J-RT3-T3-5,> 8 µM
same,IC50,JVM-2,> 8 µM
same,IC50,K562,> 8 µM
same,IC50,K5,> 8 µM
same,IC50,KALS-1,> 8 µM
same,IC50,KE-37,> 8 µM
same,IC50,KNS-42,> 8 µM
same,IC50,KURAMOCHI,> 8 µM
same,IC50,LS-123,> 8 µM
same,IC50,ML-2,> 8 µM
same,IC50,MV4-11,0.453 µM
same,IC50,NB5,> 8 µM
same,IC50,NCI-H1355,> 8 µM
same,IC50,NCI-H1395,> 8 µM
same,IC50,NCI-H23,> 8 µM
same,IC50,NCI-N87,> 8 µM
same,IC50,NOMO-1,> 8 µM
same,IC50,NTERA-2-cl-D1,> 8 µM
same,IC50,OCUB-M,1.02 µM
same,IC50,ONS-76,> 8 µM
same,IC50,RH-1,> 8 µM
same,IC50,RPMI-8226,> 8 µM
same,IC50,RPMI-8866,> 8 µM
same,IC50,SK-MEL-1,> 8 µM
same,IC50,SK-UT-1,> 8 µM
same,IC50,SW684,> 8 µM
same,IC50,SW 954,> 8 µM
same,IC50,A101D,> 8 µM
same,IC50,AM-38,> 8 µM
same,IC50,BB49-HNC,> 8 µM
same,IC50,C2BBe1,> 8 µM
same,IC50,TE-10,> 8 µM
same,IC50,TE-12,> 8 µM
same,IC50,TE-9,> 8 µM
same,IC50,CGTH-W-1,> 8 µM
same,IC50,COLO-668,> 8 µM
same,IC50,COLO-684,> 8 µM

# — ChEMBL document CHEMBL1201861, “Genomics of Drug Sensitity in Cancer screening data, Wellcome Trust Sanger Institute”
